We go through 6 compounds from patent publication US6136845A (The Texas A&M University System, priority 1998, dated 2000).

Read-outs that look alike come from different tables or passages of the source.

For one data set, the system named is liver. Conditions: result in words; cited from earlier work.
In the next data set the test system is mammary tumor. To be noted: cited from earlier work.
Data set [1] concerns CYP1A1. Conditions: result in words; cited from earlier work.
Another data set deals with mammary tumors. Nature of the data set: DMBA-induced rat mammary tumor model, tumor volume and weight. It counts as in vivo, Sprague-Dawley rat. Conditions: 20 days. On the procedure:
Female virgin Sprague-Dawley rats were obtained from Harlan (Houston) and were allowed to acclimate for 10 days, allowed access to food and water ad libitum, and maintained on a 12 h light/dark schedule. Mammary tumors were induced in 50±3 day old-rats by administering a single gavage dose of 20 mg DMBA in 0.5 ml corn oil. […] Tumor sizes were measured with calipers, and volumes were calculated by formula (length×width×depth)/6π and are expressed as percent control. […] All tumors were removed, weighed, and sectioned. One portion was frozen in liquid nitrogen for PCR analysis; one portion was placed in 10% formalin for histopathological analysis; and the majority was immediately homogenized for the preparation of microsomal and cytosolic fractions. Livers were perfused and weighed, and cytosol and microsomes were prepared as previously described.

The subject of data set [2] is uterus. Nature of the data set: Uterine wet weight in ovariectomized rats (Example 4). To be noted: 0.4 mg/kg/day each oral, 20 days. It counts as in vivo, Sprague-Dawley rat.
From the text: (§2) Methods: Rats were ovariectomized at 97 days of age, and treatments began at 117 days of age. […] Rats were euthanized on day 21.
For data set [3], the system named is uterus. To be noted: cited from earlier work.
Data set [4] can be described thus: Body and organ weights (Example 6, Table 7).
Method: For Table 7 and FIGS. 3 and 3B, exact aged virgin female Sprague-Dawley rats were dosed on day 55 in the afternoon with 20 mg/rat 7,12-dimethylbenz[a]anthacene in a volume of 0.5 ml/rat corn oil (rats weigh approximately 165 g, resulting in 120 mg/kg DMBA and 3 ml/kg corn oil).
A further data set deals with femurs. The experiment in a line: Bone effects in ovariectomized rats (femur weight and length). It counts as in vivo, Sprague-Dawley rat. To be noted: tamoxifen 0.4, 6-MCDF 0.8 mg/kg/day oral, 20 days. As to the method:
The ovariectomized rat is used as a model for osteoporosis.
Rats were euthanized on day 21. After uteri were excised and processed, both left and right femurs were excised and the length measured with calipers. […] Wet weight was measured after residual connective tissue was stripped away. Dry weight was measured after the bones were dried for 12 ours at 130° C.

For data set [5], the system named is uterine peroxidase. The experiment in a line: Uterine peroxidase assay in ovariectomized rats (Example 4). It counts as in vivo, Sprague-Dawley rat. To be noted: 0.4 mg/kg/day each oral, 20 days. The text has this:
(§1) Rats were euthanized on day 21.

Data set [6] concerns uterine peroxidase. Nature of the data set: Uterine peroxidase activity in ovariectomized rats (Example 6, Table 6). It counts as in vivo, Sprague-Dawley rat. To be noted: tamoxifen 0.4, 6-MCDF 0.8 mg/kg/day oral, 20 days.
From the text: as §1

Data set [7] concerns uterus. The experiment in a line: Uterine wet weight in ovariectomized rats (Example 6, Table 6). It counts as in vivo, Sprague-Dawley rat. Conditions: tamoxifen 0.4, 6-MCDF 0.8 mg/kg/day oral, 20 days.
From the text: as §1

The nature of data set [8]: Body and organ weights in DMBA-treated rats. As to the method: Female virgin Sprague-Dawley rats were obtained from Harlan (Houston) and were allowed to acclimate for 10 days, allowed access to food and water ad libitum, and maintained on a 12 h light/dark schedule. Mammary tumors were induced in 50±3 day old-rats by administering a single gavage dose of 20 mg DMBA in 0.5 ml corn oil. […] Tumor sizes were measured with calipers, and volumes were calculated by formula (length×width×depth)/6π and are expressed as percent control. One week after their last injection, rats were euthanized by asphyxiation. All tumors were removed, weighed, and sectioned. One portion was frozen in liquid nitrogen for PCR analysis; one portion was placed in 10% formalin for histopathological analysis; and the majority was immediately homogenized for the preparation of microsomal and cytosolic fractions. Livers were perfused and weighed, and cytosol and microsomes were prepared as previously described.

Another data set deals with endometrial tumor. To be noted: cited from earlier work.
A short description of data set [9]: Body and organ weights (Examples 4 and 5).
Method: as §2
For the control vehicle and the MCDF vehicle ethanol was added (5% v/v) and then evaporated away.
Data set [10] deals with uterine progesterone receptor. The experiment in a line: Uterine progesterone receptor in ovariectomized rats (Example 6, Table 6). It counts as in vivo, Sprague-Dawley rat. Conditions: tamoxifen 0.4, 6-MCDF 0.8 mg/kg/day oral, 20 days.
From the text: as §1

The next data set relates to uterine cytosolic PR. The experiment in a line: Uterine cytosolic PR levels in ovariectomized rats (Example 4). It counts as in vivo, Sprague-Dawley rat. Conditions: 0.4 mg/kg/day each oral, 20 days.
From the text: as §1

In another data set the test system is bone tissue. Conditions: cited from earlier work.
A further data set has as its system rat uterus. Conditions: immature female rat uterus; result in words; cited from earlier work.
Data set [11] relates to CYP1A1. Conditions: rat, cited from earlier work; for ED50 for induction of hepatic CYP1A1-dependent activity: 6-i-propyl value estimated.
Where [12] appears, read: each drug 0.4 mg/kg/day by gavage, DMBA rats.

In the case of `Cc1cc(Cl)c2oc3cc(Cl)cc(Cl)c3c2c1` [8-MCDF, 8-methyl-1,3,6-trichlorodibenzofuran], in the data set on liver, the liver morphology entry was “not accompanied by any significant changes” and the liver/body weight ratios result is “not accompanied by any significant changes”. In addition, the growth inhibition in the data set on mammary tumor (5 mg/kg/wk) was > 50%. In the data set on mammary tumor (5, 10 or 25 mg/kg/wk, result in words), the mammary tumor growth entry was “significantly inhibited”. Also, in the data set with CYP1A1 [1], the “induction of hepatic CYP1A1-dependent activity” value is recorded as “not accompanied by any significant changes”.
For `CC/C(=C(\c1ccccc1)c1ccc(OCCN(C)C)cc1)c1ccccc1` [tamoxifen, reference compound], the “Tumor Wt (% Control)” value in the data set with mammary tumors (0.4 mg/kg/day each, control 100 ± 27.7) came to 61.5 ± 30.4 % Control. Moreover, in the data set with mammary tumors (0.4 mg/kg/day each, control 100 ± 31.5), the “Final Tumor Volume (% Control)” value is listed as 41.5 ± 20 % Control. In addition, the “Final Tumor Volume” value in the data set on mammary tumors (0.4 mg/kg/day each, control 2734 ± 956) is recorded as 1135 ± 587 mm^3. In addition, the “% Inhibition tumor volume” value with mammary tumors (setting [12]) is reported as 58.5%. The “% Inhibition tumor weight” value with mammary tumors (setting [12]) was “NS decrease”. Also, the “Uterine Wet Weight (% body wt)” value with uterus [2] (control 0.045 ± 0.002) came to 0.085 ± 0.004 % body wt. Moreover, the “Uterine Wet Weight” value with uterus [2] (control 0.131 ± 0.006) was 0.211 ± 0.011 g. The uterine hyperplasia entry in the data set with uterus [3] (most animal models) is “induced uterine hyperplasia”. Moreover, in the data set with uterus [3] (rat, result in words), the “rat uterine wet weight” value was “significant dose dependent increases”. Besides, the “Rat weight at start of treatments” value in data set [4] (Table 7, baseline, control 255 ± 3) turned out to be 261 ± 9 g; in data set [9] (Table 5, baseline, control 273.1 ± 8.1), 275.7 ± 7.6 g. Also, the “Spleen weight (% body weight)” value in data set [4] (Table 7, control 0.289 ± 0.018) was 0.254 ± 0.018 % body weight. Further, the “Kidney weight (% body weight)” value in data set [4] (Table 7, control 0.334 ± 0.010) was 0.369 ± 0.017 % body weight. In addition, in data set [4] (Table 7, control 0.360 ± 0.010), the “Heart weight (% body weight)” value was found to be 0.357 ± 0.023 % body weight. Besides, the “Rat weight prior to euthanasia” value is recorded as 242 ± 6 g in [4] (Table 7, control 295 ± 11) and 249.8 ± 7.6 g in [9] (Table 5, control 293.2 ± 10.9). Also, the Dry bone weight in the data set with femurs (control 0.180 ± 0.005) is 0.216 ± 0.005 % body weight. The compound further displayed a Wet bone weight in the data set with femurs (control 0.347 ± 0.009) of 0.403 ± 0.007 % body weight. The “Uterine Peroxidase Assay (Abs/g uterus)” value with uterine peroxidase [5] (per g uterus) is recorded as 17.7 ± 0.45 Fold Increase over Control. Also, the “Uterine Peroxidase Assay (Abs/mg protein)” value with uterine peroxidase [5] (per mg protein) was 17.5 ± 0.60 Fold Increase over Control. For the same compound, in the data set with uterine peroxidase [5] (per uterus), the “Uterine Peroxidase Assay (Abs/uterus)” value is listed as 28.41 ± 0.73 Fold Increase over Control. In the data set with uterine peroxidase [6] (per g uterus), the “Uterine Peroxidase Activity (Absorbance/g uterus)” value was 31.94 ± 0.26 Fold Increase over control. The “Uterine Peroxidase Activity (Absorbance/mg protein)” value in the data set on uterine peroxidase [6] (per mg protein) is recorded as 26.76 ± 0.22 Fold Increase over control. In addition, in the data set on uterine peroxidase [6] (per uterus), the “Uterine Peroxidase Activity (Absorbance/uterus)” value is reported as 38.66 ± 0.32 Fold Increase over control. In addition, the “Uterine wet weight (% body weight)” value in the data set with uterus [7] (control 0.0583 ± 0.0055) was 0.0857 ± 0.0036 % body weight. For the same compound, in the data set with uterus [7] (control 0.171 ± 0.15), the “Uterine wet weight” value was found to be 0.208 ± 0.009 g. The “Uterine Wt.” value in [8] (0.4 mg/kg/day each, 20 days, control 0.212 ± 0.017) is recorded as 0.142 ± 0.006 % BW. In addition, the “Spleen Wt.” value in [8] (0.4 mg/kg/day each, 20 days, control 0.257 ± .022) is on record as 0.236 ± 0.019 % BW. The Kidney weight is listed as 0.386 ± 0.012 % BW in data set [8] (0.4 mg/kg/day each, 20 days, control 0.349 ± 0.007) and 0.837 ± 0.045 g in [9] (Table 5, control 0.933 ± 0.038). Moreover, the Liver weight in [8] (0.4 mg/kg/day each, 20 days, control 3.13 ± 0.12) worked out at 3.64 ± 0.18 % BW; in data set [9] (Table 5, control 11.88 ± 0.78) it was 10.70 ± 0.92 g. The “Final Body Weight” value in [8] (0.4 mg/kg/day each, 20 days, control 250 ± 5) stood at 243 ± 4 g. Besides, the Heart weight in data set [8] (rat, in vivo) is on record as 0.420 ± 0.018 % BW; in [9] (Table 5, control 0.935 ± 0.039), 0.864 ± 0.031 g. In the data set on endometrial tumor (2843 patients, 20 mg/day (Fisher et al. 1994)), the “risk for endometrial tumor formation” value is recorded as 7.5 fold. For the same compound, the “risk for endometrial tumors” value is given as 3.3 fold with endometrial tumor (Danish trial, 30 mg/day for one year); “no increased risk” with endometrial tumor (Scottish and Manchester England trials, 20 mg/day); 2.0 fold in the data set with endometrial tumor (South-Swedish trial, 30 mg/day for one year); “approximately 6 fold” in the data set on endometrial tumor (Stockholm trial, 40 mg/day for 2 years). Also, the “risk/incidence of endometrial cancer” value in the data set with endometrial tumor (women, breast cancer treatment, result in words) was “Risk of endometrial cancer increases”. In addition, in data set [9] (Table 5, control 0.247 ± 0.007), the “Spleen wet weight (% body wt)” value is on record as 0.252 ± .008 % body wt. For the same compound, in data set [9] (Table 5, control 0.318 ± 0.010), the “kidney weight (% body wt)” value is listed as 0.334 ± 0.008 % body wt. In addition, the “Heart weight (% body wt)” value in data set [9] (Table 5, control 0.319 ± 0.006) came out at 0.346 ± 0.005 % body wt. The “Spleen wet weight” value in [9] (Table 5, control 0.72O ± 0.012) was found to be 0.631 ± 0.037 g. Also, in data set [9] (Table 5, control 4.06 ± 0.23), the “Liver weight (% body wt)” value turned out to be 4.26 ± 0.26 % body wt. Moreover, the “Uterine Progesterone Receptor (fmol/mg protein)” value in [10] (control 198 ± 15) is listed as 790 ± 21 fmol/mg protein. In addition, the “Uterine Progesterone Receptor (fmol/uterus)” value in [10] (control 765 ± 69) was determined as 9062 ± 244 fmol/uterus. The “Uterine Progesterone Receptor (fmol/g uterus)” value in data set [10] (control 4462 ± 343) is 43666 ± 1175 fmol/g uterus. In the data set with uterine cytosolic PR (control 308 ± 142), the “Uterine cytosolic PR levels (fmol/mg protein)” value turned out to be 674 ± 52 fmol/mg protein. In the data set with uterine cytosolic PR (control 1100 ± 508), the “Uterine cytosolic PR levels (fmol/uterus)” value was 4501 ± 350 fmol/uterus. Also, the “Uterine cytosolic PR levels (fmol/g uterus)” value in the data set on uterine cytosolic PR (control 8368 ± 3868) is on record as 21301 ± 1655 fmol/g uterus. Further, the effect in bone result in the data set with bone tissue (cycling rats (Takahashi et al. 1996)) is “no effect”. Moreover, the “effect in bone tissue” value in the data set with bone tissue (ovariectomized rats (Turner et al. 1987)) is reported as “acted as an estrogen agonist”.
Regarding `Cc1cc(Cl)cc2c1oc1c(Cl)c(Cl)c(Cl)cc12` [6-methyl-2,3,4,8-tetraCDF, 6-methyl-2,3,4,8-tetrachlorodibenzofuran], the “ED50 values for antiestrogenicity” value in the data set on rat uterus was “similar”. For the same compound, the “ED50 for induction of hepatic CYP1A1-dependent activity” value in the data set with CYP1A1 [11] is 8.52 mmol/kg.
Consider `Clc1cc(Cl)c2c(c1)oc1c(C3CCCCC3)cc(Cl)cc12` [6-CHDF, 6-cyclohexyl-1,3,8-triCDF], for which, in the data set with mammary tumor (5 mg/kg/wk, result in words), the antitumorigenic activity entry is “inactive”.
As for `CC(C)c1cc(Cl)cc2c1oc1cc(Cl)cc(Cl)c12` [6-i-propyl-1,3,8-triCDF], in the data set with rat uterus, the “ED50 values for antiestrogenicity” value was “similar”. The “ED50 (CYP1A1 induction)/ED50 (antiestrogenicity) ratio” value in the data set with CYP1A1 [11] (high ratio indicates low toxicity and high antiestrogenic potency) was 13,990-17,100.
Consider `Cc1cc2c(cc1Cl)oc1c(Cl)c(Cl)c(Cl)cc12` [8-methyl-2,3,4,7-tetraCDF], for which the “ED50 values for antiestrogenicity” value with rat uterus is recorded as “similar”. In addition, in the data set on CYP1A1 [11], the “ED50 for induction of hepatic CYP1A1-dependent activity” value is 5.31 mmol/kg.
